Experimental data reported in patent US5990328A, “Process for the preparation of 4-amino-Δ4-3-ketosteroids via 4-nitro-Δ4-3-ketosteroids” (priority 1999, dated 1999).

Tests used:
Assay type in all cases: biochemical
[1] = target: T1, monkey testicular C17-20 lyase (Macaca fascicularis, UniProt Q2XVA1); experiment: inhibition of cynomolgus monkey testicular C17-20 lyase (microsomes), with or without preincubation; conditions: for inhibition at 0.1 µM / inhibition at 1 µM: cynomolgus monkey testicular lyase; for inhibition at 0.1 µM: concentration 0.1 μM; for inhibition at 1 µM: concentration 1 μM
T1 construct: microsomal preparations of the enzyme from rat or cynomolgus monkey testicular tissue; from tissue; host or cells: cynomolgus monkey testicular tissue, microsomes
T1 sequence (Q2XVA1 1-508): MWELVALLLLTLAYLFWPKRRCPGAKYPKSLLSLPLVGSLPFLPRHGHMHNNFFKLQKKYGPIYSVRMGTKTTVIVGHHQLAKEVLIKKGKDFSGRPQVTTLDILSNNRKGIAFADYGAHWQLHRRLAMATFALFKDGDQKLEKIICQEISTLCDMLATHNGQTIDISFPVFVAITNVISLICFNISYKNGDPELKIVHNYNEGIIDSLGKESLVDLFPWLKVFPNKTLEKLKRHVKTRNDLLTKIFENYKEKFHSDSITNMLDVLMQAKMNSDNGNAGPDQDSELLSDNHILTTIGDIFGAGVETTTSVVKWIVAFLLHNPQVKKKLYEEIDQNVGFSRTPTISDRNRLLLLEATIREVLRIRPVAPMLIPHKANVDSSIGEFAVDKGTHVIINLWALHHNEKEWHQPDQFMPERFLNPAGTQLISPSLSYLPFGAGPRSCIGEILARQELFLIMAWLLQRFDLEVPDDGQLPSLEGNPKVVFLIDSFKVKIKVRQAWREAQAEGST
Experimental: (§1) The in vitro enzymatic inhibitory activity of the present compounds as inhibitors of steroid C17-20 lyase was established using microsomal preparations of the enzyme from rat or cynomolgus monkey testicular tissue. Microsomes were isolated from cynomolgus monkey or rat testicular tissue. The compound to be tested was dissolved in dimethyl sulfoxide and diluted in 0.05M potassium phosphate buffer, (pH 7.4 for cynomolgus monkey lyase activity and pH 7.2 for rat lyase activity) to give the desired concentrations of test compound. The final assay concentration of DMSO was 0.1% (v/v). Assays contained an NADPH regenerating system comprised of […], 5 mM glucose-6-phosphate, 1 IU/mL glucose-6-phosphate dehydrogenase and microsomal protein in a total volume of 0.2 mL.
For determination of time dependent C17-20 lyase inactivation, the test compound was incubated with 20 to 62 μg/mL microsomal protein, 0.05 M potassium phosphate buffer, pH 7.4, and the NADPH regenerating system described above at 34° C. for 0 to 40 minutes. Aliquots of 180 μL were then removed and assayed for enzyme activity. Each aliquot was added to [7-^3 H]-17α-hydroxypregnenolone (11.2 mCi/mmole; 0.2 μCi per assay) plus unlabeled 17α-hydroxypregnenolone to give a total substrate concentration of 0.3 μM per assay and subsequently incubated for 6 minutes at 34° C. For determination of reversible inhibition by the test compound, the reaction was initiated by the addition of substrate and inhibitor (or DMSO in buffer for controls) simultaneously to the other assay components. The substrate used for cynomolgus monkey lyase was 7-^3 H-17α-hydroxypregnenolone, which yielded a final concentration of 0.3 μM substrate. […] The complete assay was incubated at 34° C. for 6 minutes for both rat and monkey lyase.
Each assay was terminated by addition of 5 mL of chloroform:methanol (2:1). Carrier steroid (2.5 μg each) representing substrates and products and 0.8 mL of distilled, deionized water were then added to each assay. Carrier steroids for the lyase assays were 17α-hydroxy-pregnenolone,dehydroepiandrosterone, and androst-5-ene-3β,17β-diol (cynomolgus monkey lyase assays) or 17α-hydroxyprogesterone, androstenedione, and testosterone (rat lyase assays). Testosterone, dihydrotestosterone, and 3,17-androstanediol were added to the 5α-reductase assays as carrier steroids. Radiolabeled and unlabeled steroid were extracted by the method of Moore and Wilson (Methods in Enzymol., eds. O'Malley, B. W. and Hardlan, J. G. 36, 1975, pp. 466-473). The organic phase containing the steroids was evaporated using nitrogen gas. For lyase assays, the residues dissolved in 18% tetrahydrofuran (v/v) in hexane. For 5α-reductase assays, the dried steroid residues were dissolved in 3% (v/v) isopropanol in hexane. the steroids were then separated by normal phase HPLC on a LiCrosorb® DIOL derivatized silica gel column (10 μm; 4×250 mm) with a 3% to 7.5% isopropanol in hexane gradient, followed by isocratic conditions of […] isopropanol in hexane. Radioactivity in the steroid peaks was measured using a Radiomatic® Model HS or Model A515 Flo-One detector for both lyase and 5α-reductase assays.
The enzyme activity for each assay was calculated from the percent conversion of substrate to products, and the results were expressed as percent inhibition of control. The data from these experiments were fitted into the appropriate two parameter model incorporating six concentrations of inhibitor to determine an IC50 value. […] When the compounds were tested using the above procedures with cynomolgus monkey testicular lyase, the following results were obtained: […]

[2] = target: T2, rat testicular C17-20 lyase (Rattus norvegicus, UniProt P11715); experiment: inhibition of rat testicular C17-20 lyase (microsomes)
T2 construct: microsomal preparations of the enzyme from rat or cynomolgus monkey testicular tissue; from tissue; host or cells: rat testicular tissue, microsomes
T2 sequence (P11715 1-507): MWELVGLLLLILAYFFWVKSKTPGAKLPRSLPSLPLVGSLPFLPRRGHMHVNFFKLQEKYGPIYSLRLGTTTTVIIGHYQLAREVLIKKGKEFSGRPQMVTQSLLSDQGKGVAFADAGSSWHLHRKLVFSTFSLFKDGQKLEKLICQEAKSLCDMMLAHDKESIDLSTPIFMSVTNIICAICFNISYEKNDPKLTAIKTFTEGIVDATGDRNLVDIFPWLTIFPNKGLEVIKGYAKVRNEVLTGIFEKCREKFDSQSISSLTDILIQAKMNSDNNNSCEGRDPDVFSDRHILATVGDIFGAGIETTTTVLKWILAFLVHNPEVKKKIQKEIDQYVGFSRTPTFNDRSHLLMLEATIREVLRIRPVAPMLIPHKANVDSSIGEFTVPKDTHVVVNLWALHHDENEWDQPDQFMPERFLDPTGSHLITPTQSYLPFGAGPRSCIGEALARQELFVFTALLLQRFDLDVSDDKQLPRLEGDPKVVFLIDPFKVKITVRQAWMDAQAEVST
Experimental: as §1, with “mL. […]” for “mL.”
(§2) Each assay was terminated by addition of 5 mL of chloroform:methanol (2:1). […] Radioactivity in the steroid peaks was measured using a Radiomatic® Model HS or Model A515 Flo-One detector for both lyase and 5α-reductase assays.
(§3) The enzyme activity for each assay was calculated from the percent conversion of substrate to products, and the results were expressed as percent inhibition of control. […]

[3] = target: T3, prostatic monkey 5α-reductase (Macaca fascicularis, UniProt Q28892); experiment: inhibition of cynomolgus monkey prostatic 5α-reductase (microsomes)
T3 construct: microsomes were isolated from cynomolgus monkey prostate tissue; from tissue; host or cells: cynomolgus monkey prostate tissue, microsomes
T3 sequence (Q28892 1-254): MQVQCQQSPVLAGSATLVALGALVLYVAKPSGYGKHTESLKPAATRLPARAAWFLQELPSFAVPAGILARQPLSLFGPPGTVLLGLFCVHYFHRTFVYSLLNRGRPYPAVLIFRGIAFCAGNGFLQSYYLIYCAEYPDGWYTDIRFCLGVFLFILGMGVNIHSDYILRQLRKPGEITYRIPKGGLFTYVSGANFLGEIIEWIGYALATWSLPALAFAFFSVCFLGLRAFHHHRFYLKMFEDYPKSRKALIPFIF
Experimental: The activity of the present compounds as inhibitors of steroid 5α-reductase was determined using microsomal preparations of the 5α-reductase enzyme from laboratory animal prostate tissue. Specifically, microsomes were isolated from cynomolgus monkey prostate tissue. Protein concentration of the microsomal preparations was determined prior to use of the samples. […] Background radioactivity was determined from assays containing all components except enzyme. […]
as §2, §3

[4] = preincubation time 40 (minutes)

SMILES	inhibition at 0.1 µM ([1]; preincubation time 0 (minutes)) [%]	inhibition at 1 µM ([1]; preincubation time 0 (minutes)) [%]	inhibition at 0.1 µM [1, 4] [%]	inhibition at 1 µM [1, 4] [%]	IC50 ([2]; rat testicular microsomes, substrate 0.1 μM 17α-hydroxyprogesterone, pH 7.2, 34° C.) [nM]	IC50 ([1]; cynomolgus monkey testicular microsomes, substrate 0.3 μM 17α-hydroxypregnenolone, 34° C.) [nM]	IC50 [3] [nM]	Km ([2]; substrate Km, rat lyase activity) [µM]
C[C@]12CC[C@H]3[C@@H](CCC4=C([N+](=O)[O-])C(=O)CC[C@@]43C)[C@@H]1CC[C@@H]2OC1CC1 [17β-cyclopropyloxy-4-nitroandrost-4-en-3-one]	36	78	79	95				
C[C@H](CO)[C@H]1CC[C@H]2[C@@H]3CCC4=C([N+](=O)[O-])C(=O)CC[C@]4(C)[C@H]3CC[C@]12C [(20S)-20-Hydroxymethyl-4-nitropregn-4-en-3-one]					86	41	17	
C[C@H](CS)[C@H]1CC[C@H]2[C@@H]3CCC4=C([N+](=O)[O-])C(=O)CC[C@]4(C)[C@H]3CC[C@]12C [(20S)-20-mercaptomethyl-4-nitropregn-4-en-3-one]	0	69	26	93				
CC(=O)[C@@]1(O)CC[C@H]2[C@@H]3CCC4=CC(=O)CC[C@]4(C)[C@H]3CC[C@@]21C [[1,2-^3 H]-17α-hydroxyprogesterone, reference compound]								0.095
